Results published in publication PMC11045757, “Group 3 medulloblastoma transcriptional networks collapse under domain specific EP300/CBP inhibition” (Nature Communications, 2024).

Test system: 460 barcoded cancer cell lines
Experiment: PRISM pooled barcoded cancer cell line growth screen, 10-point dose-response, 5 days, AUC
Type: cell-based
Design: scale not given here
Description: Several small molecule inhibitors of distinct protein domains of EP300/CBP are available, though the majority target the histone acetyltransferase domain (HAT) or bromodomain (BRD)[5],[10],[21],[22]. […] We used these tools to investigate the relative contribution of the EP300/CBP BRD or HAT domain to tumor cell growth (Fig. 1a). To do so, we performed 10-point, dose-response growth assays using mixed pools of 460 barcoded cancer cell lines, over five days of treatment in vitro[33],[34]. Growth was measured using an area-under-the-curve (AUC) approach (Supplementary Table 1, Supplementary Fig. 1a). […] Given potential differences in compound penetration and solubility, and to compare the relative cell line and tumor-specific effects of these two compounds in assays performed non-simultaneously, we performed a median normalization of each dataset (Supplementary Table 2).

SMILES: CNC(=O)Nc1ccc2c(c1)CCC21OC(=O)N(CC(=O)N(Cc2ccc(F)cc2)C(C)C(F)(F)F)C1=O (centres unmarked) [Compound A485]
- AUC (22RV1, Prostate Cancer): 0.5834
- AUC (42MGBA, Glioma): 0.8468
- AUC (143B, Osteosarcoma): 1
- AUC (639V, Bladder Cancer): 0.8274
- AUC (647V, Bladder Cancer): 0.6672
- AUC (697, B-cell Leukemia): 0.5617
- AUC (769P, Kidney Cancer): 0.6332
- AUC (5637, Bladder Cancer): 0.8843
- AUC (8305C, Thyroid Cancer): 0.7544
- AUC (A101D, Melanoma): 0.9258
- AUC (A204, Rhabdoid): 0.6513
- AUC (A253, Head and Neck Cancer): 0.8228
- AUC (A375, Melanoma): 0.749
- AUC (A427, Lung Cancer): 0.6968
- AUC (A673, Ewing Sarcoma): 1
- AUC (A1207, Glioblastoma): 0.7712
- AUC (ACHN, Kidney Cancer): 0.5417
- AUC (AGS, Gastric Cancer): 0.7849
- AUC (AM38, Glioblastoma): 1
- AUC (AN3CA, Endometrial/Uterine Cancer): 0.8692
- AUC (AU565, Breast Cancer): 0.7944
- AUC (BDCM, AML): 0.9026
- AUC (BEN, Lung Cancer): 0.8869
- AUC (BFTC905, Bladder Cancer): 0.6715
- AUC (BHT101, Thyroid Cancer): 0.6133
- AUC (BICR16, Head and Neck Cancer): 0.6804
- AUC (BICR18, Head and Neck Cancer): 1
- AUC (BICR22, Head and Neck Cancer): 0.7556
- AUC (BICR31, Head and Neck Cancer): 0.7077
- AUC (BICR56, Head and Neck Cancer): 0.6769
- AUC (BT16, Rhabdoid): 1
- AUC (BT474, Breast Cancer): 0.9498
- AUC (C32, Melanoma): 0.9339
- AUC (C8166, Lymphoma): 0.6916
- AUC (CADOES1, Ewing Sarcoma): 0.6865
- AUC (CAKI1, Kidney Cancer): 0.6849
- AUC (CAL27, Head and Neck Cancer): 0.7545
- AUC (CAL54, Kidney Cancer): 0.4813
- AUC (CAL62, Thyroid Cancer): 0.8629
- AUC (CAL78, Chondrosarcoma): 0.8774
- AUC (CAL120, Breast Cancer): 0.8951
- AUC (CAOV3, Ovarian Cancer): 0.8124
- AUC (CBAGPN, Ewing Sarcoma): 0.8343
- AUC (CCK81, Colon/Colorectal Cancer): 0.7195
- AUC (CHAGOK1, Lung Cancer): 0.9372
- AUC (CHL1, Melanoma): 0.6205
- AUC (CHLA06ATRT, Rhabdoid): 1
- AUC (CHLA10, Ewing Sarcoma): 0.7781
- AUC (CHLA15, Neuroblastoma): 0.7188
- AUC (CHLA57, Ewing Sarcoma): 0.9584
- AUC (CHP212, Neuroblastoma): 0.8072
- AUC (CI1, B-cell Lymphoma): 0.7779
- AUC (CJM, Melanoma): 0.6266
- AUC (CL11, Colon/Colorectal Cancer): 0.6639
- AUC (CL34, Colon/Colorectal Cancer): 0.6654
- AUC (CMLT1, CML): 0.6607
- AUC (COGAR359, Rhabdoid): 1
- AUC (COGE352, Ewing Sarcoma): 1
- AUC (COLO320, Colon/Colorectal Cancer): 1
- AUC (COLO678, Colon/Colorectal Cancer): 0.7938
- AUC (COLO783, Melanoma): 0.9045
- AUC (COLO792, Melanoma): 0.7929
- AUC (CORL23, Lung Cancer): 0.831
- AUC (CORL105, Lung Cancer): 0.7616
- AUC (COV318, Ovarian Cancer): 0.7366
- AUC (COV434, Ovarian Cancer): 0.6392
- AUC (COV644, Ovarian Cancer): 0.7528
- AUC (CW2, Colon/Colorectal Cancer): 0.9324
- AUC (CW9019, Rhabdomyosarcoma): 0.6452
- AUC (DAOY, Medulloblastoma): 0.7773
- AUC (DEL, Lymphoma): 0.7007
- AUC (DETROIT562, Head and Neck Cancer): 0.6189
- AUC (DKMG, Glioblastoma): 0.8817
- AUC (DL, Rhabdoid): 0.6996
- AUC (DMS53, Lung Cancer): 0.6382
- AUC (DMS273, Lung Cancer): 0.7762
- AUC (DND41, T-acute leukemia): 0.7502
- AUC (DU145, Prostate Cancer): 0.8463
- AUC (DU4475, Breast Cancer): 0.4233
- AUC (DV90, Lung Cancer): 0.6128
- AUC (EB1, Lymphoma): 1
- AUC (EBC1, Lung Cancer): 0.8735
- AUC (ECC10, Gastric Cancer): 0.8444
- AUC (ECGI10, Esophageal Cancer): 0.8435
- AUC (EFE184, Endometrial/Uterine Cancer): 1
- AUC (EFM19, Breast Cancer): 0.5992
- AUC (EFO21, Ovarian Cancer): 0.9024
- AUC (EM2, CML): 0.902
- AUC (EN, Endometrial/Uterine Cancer): 0.9736
- AUC (ES2, Ovarian Cancer): 0.7477
- AUC (ESS1, Endometrial/Uterine Cancer): 0.9044
- AUC (EW8, Ewing Sarcoma): 0.7371
- AUC (EWS502, Ewing Sarcoma): 0.6563
- AUC (FADU, Head and Neck Cancer): 0.9573
- AUC (FTC133, Thyroid Cancer): 0.8254
- AUC (FTC238, Thyroid Cancer): 0.7484
- AUC (G292CLONEA141B1, Osteosarcoma): 1
- AUC (G361, Melanoma): 0.6803
- AUC (G401, Rhabdoid): 1
- AUC (G402, Rhabdoid): 0.9975
- AUC (GB1, Glioblastoma): 0.7582
- AUC (GCT, Pleomorphic Sarcoma): 0.8933
- AUC (GI1, Glioblastoma): 0.757
- AUC (GOS3, Glioblastoma): 0.9534
- AUC (GP2D, Colon/Colorectal Cancer): 0.7575
- AUC (GRANTA519, Lymphoma): 0.8493
- AUC (GSS, Gastric Cancer): 0.6579
- AUC (HARA, Lung Cancer): 0.7108
- AUC (HCC33, Lung Cancer): 0.908
- AUC (HCC38, Breast Cancer): 0.7435
- AUC (HCC44, Lung Cancer): 0.6558
- AUC (HCC56, Colon/Colorectal Cancer): 0.6212
- AUC (HCC78, Lung Cancer): 0.7931
- AUC (HCC95, Lung Cancer): 0.8823
- AUC (HCC515, Lung Cancer): 0.6901
- AUC (HCC1419, Breast Cancer): 0.6161
- AUC (HCC1428, Breast Cancer): 0.6381
- AUC (HCC1438, Lung Cancer): 0.9014
- AUC (HCC1806, Breast Cancer): 0.8548
- AUC (HCC1937, Breast Cancer): 0.6971
- AUC (HCC2108, Lung Cancer): 1
- AUC (HCC4006, Lung Cancer): 0.7024
- AUC (HCT116, Colon/Colorectal Cancer): 0.9205
- AUC (HDMYZ, Lymphoma): 1
- AUC (HDQP1, Breast Cancer): 0.7294
- AUC (HEC1B, Endometrial/Uterine Cancer): 0.8662
- AUC (HEC6, Endometrial/Uterine Cancer): 0.9741
- AUC (HEC50B, Endometrial/Uterine Cancer): 1
- AUC (HEL9217, AML): 0.6119
- AUC (HEL, AML): 0.5914
- AUC (HEP3B217, Liver Cancer): 0.7234
- AUC (HEPG2, Liver Cancer): 0.8554
- AUC (HEYA8, Ovarian Cancer): 0.9784
- AUC (HGC27, Gastric Cancer): 0.9226
- AUC (HH, Lymphoma): 0.7764
- AUC (HOS, Osteosarcoma): 0.9517
- AUC (HPBALL, T-acute leukemia): 0.8767
- AUC (HS294T, Melanoma): 0.8326
- AUC (HS766T, Pancreatic Cancer): 0.7648
- AUC (HSC2, Head and Neck Cancer): 0.6896
- AUC (HSC3, Head and Neck Cancer): 0.8176
- AUC (HT29, Colon/Colorectal Cancer): 0.7629
- AUC (HT115, Colon/Colorectal Cancer): 1
- AUC (HT144, Melanoma): 0.8574
- AUC (HT1197, Bladder Cancer): 0.9829
- AUC (HT, B-cell Lymphoma): 0.6247
- AUC (HUCCT1, Bile Duct Cancer): 0.8158
- AUC (HUG1N, Gastric Cancer): 0.7448
- AUC (HUH1, Liver Cancer): 0.7158
- AUC (HUH7, Liver Cancer): 1
- AUC (HUH28, Bile Duct Cancer): 0.821
- AUC (HUPT3, Pancreatic Cancer): 0.6895
- AUC (HUPT4, Pancreatic Cancer): 0.6862
- AUC (HUT78, Lymphoma): 0.9441
- AUC (IALM, Lung Cancer): 0.6559
- AUC (IGR37, Melanoma): 0.6843
- AUC (IGROV1, Ovarian Cancer): 0.8359
- AUC (IM95, Gastric Cancer): 0.7117
- AUC (IPC298, Melanoma): 0.8033
- AUC (ISHIKAWAHERAKLIO02ER, Endometrial/Uterine Cancer): 0.9178
- AUC (ISTMES1, Lung Cancer): 0.7574
- AUC (J82, Bladder Cancer): 0.8707
- AUC (JEKO1, Lymphoma): 0.7073
- AUC (JHH1, Liver Cancer): 0.7161
- AUC (JHH4, Liver Cancer): 0.849
- AUC (JHH5, Liver Cancer): 0.5701
- AUC (JHH7, Liver Cancer): 0.6779
- AUC (JHOC5, Ovarian Cancer): 0.8969
- AUC (JHUEM7, Endometrial/Uterine Cancer): 1
- AUC (JVM3, B-cell Leukemia): 0.6743
- AUC (K029AX, Melanoma): 0.7933
- AUC (KALS1, Glioblastoma): 0.6866
- AUC (KARPAS620, Myeloma): 0.9002
- AUC (KATOIII, Gastric Cancer): 0.6951
- AUC (KCL22, CML): 0.6275
- AUC (KD, Rhabdoid): 0.6425
- AUC (KE37, T-acute leukemia): 0.6716
- AUC (KE39, Gastric Cancer): 0.7203
- AUC (KELLY, Neuroblastoma): 0.5242
- AUC (KMBC2, Bladder Cancer): 0.7261
- AUC (KMS11, Myeloma): 0.7944
- AUC (KMS12BM, Myeloma): 0.9973
- AUC (KMS18, Myeloma): 0.7657
- AUC (KMS21BM, Myeloma): 0.9338
- AUC (KMS28BM, Myeloma): 0.817
- AUC (KMS34, Myeloma): 0.8682
- AUC (KNS42, Glioblastoma): 0.8304
- AUC (KNS60, Glioblastoma): 0.7072
- AUC (KNS62, Lung Cancer): 0.8264
- AUC (KP3, Pancreatic Cancer): 0.9118
- AUC (KPNYN, Neuroblastoma): 0.9338
- AUC (KS1, Glioma): 0.6653
- AUC (KU1919, Bladder Cancer): 0.6431
- AUC (KYM1, Rhabdoid): 0.5622
- AUC (KYSE30, Esophageal Cancer): 0.6256
- AUC (KYSE150, Esophageal Cancer): 0.8681
- AUC (KYSE410, Esophageal Cancer): 0.9564
- AUC (KYSE510, Esophageal Cancer): 0.7247
- AUC (KYSE520, Esophageal Cancer): 0.7055
- AUC (LAMA84, CML): 0.6928
- AUC (LC1SQSF, Lung Cancer): 0.7027
- AUC (LCLC103H, Lung Cancer): 0.9264
- AUC (LI7, Liver Cancer): 0.7203
- AUC (LK2, Lung Cancer): 0.847
- AUC (LMSU, Gastric Cancer): 0.7223
- AUC (LN18, Glioblastoma): 0.7097
- AUC (LNCAPCLONEFGC, Prostate Cancer): 0.6119
- AUC (LOUNH91, Lung Cancer): 0.9465
- AUC (LOVO, Colon/Colorectal Cancer): 0.7392
- AUC (LOXIMVI, Melanoma): 0.8926
- AUC (LS180, Colon/Colorectal Cancer): 0.7453
- AUC (LS411N, Colon/Colorectal Cancer): 0.8492
- AUC (LS1034, Colon/Colorectal Cancer): 0.4819
- AUC (LUDLU1, Lung Cancer): 0.9399
- AUC (LXF289, Lung Cancer): 0.6887
- AUC (M059K, Glioblastoma): 0.8677
- AUC (MALME3M, Melanoma): 0.6048
- AUC (MC116, B-cell Lymphoma): 0.8821
- AUC (MCAS, Ovarian Cancer): 0.7202
- AUC (MCF7, Breast Cancer): 0.7287
- AUC (MDAMB175VII, Breast Cancer): 0.9247
- AUC (MDAMB231, Breast Cancer): 0.7703
- AUC (MDAMB361, Breast Cancer): 0.7016
- AUC (MDAMB436, Breast Cancer): 0.9544
- AUC (MDAMB453, Breast Cancer): 0.5182
- AUC (MDAMB468, Breast Cancer): 1
- AUC (MDST8, Colon/Colorectal Cancer): 0.8223
- AUC (MELHO, Melanoma): 0.7944
- AUC (MESSA, Uterine Sarcoma): 0.7132
- AUC (MFE280, Endometrial/Uterine Cancer): 0.7775
